The source made the active and inactive calls.
Tests used:
[1] = Luminescence Cell-Based Dose Response HTS to Identify Activators of Luciferase Translation or Activity in H4 […] Cells. [Related pubchem assays: 1829 (Project Summary), 1814 (Primary HTS)]; type: functional
Procathepsin L = Procathepsin L (Homo sapiens, UniProt P07711)
[2] = molecular target: T1, Short transient receptor potential channel 4 (Mus musculus, UniProt Q9QUQ5); assay: mouse TRPC4 channel inhibitors, dose response, cell-based, HEK293 TRPC4/mu-opioid, Fluo-4 calcium (AID 434942); type: functional;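 note: potency of inhibitors blocking the TRPC4 calcium response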
T1 sequence (Q9QUQ5 whole entry): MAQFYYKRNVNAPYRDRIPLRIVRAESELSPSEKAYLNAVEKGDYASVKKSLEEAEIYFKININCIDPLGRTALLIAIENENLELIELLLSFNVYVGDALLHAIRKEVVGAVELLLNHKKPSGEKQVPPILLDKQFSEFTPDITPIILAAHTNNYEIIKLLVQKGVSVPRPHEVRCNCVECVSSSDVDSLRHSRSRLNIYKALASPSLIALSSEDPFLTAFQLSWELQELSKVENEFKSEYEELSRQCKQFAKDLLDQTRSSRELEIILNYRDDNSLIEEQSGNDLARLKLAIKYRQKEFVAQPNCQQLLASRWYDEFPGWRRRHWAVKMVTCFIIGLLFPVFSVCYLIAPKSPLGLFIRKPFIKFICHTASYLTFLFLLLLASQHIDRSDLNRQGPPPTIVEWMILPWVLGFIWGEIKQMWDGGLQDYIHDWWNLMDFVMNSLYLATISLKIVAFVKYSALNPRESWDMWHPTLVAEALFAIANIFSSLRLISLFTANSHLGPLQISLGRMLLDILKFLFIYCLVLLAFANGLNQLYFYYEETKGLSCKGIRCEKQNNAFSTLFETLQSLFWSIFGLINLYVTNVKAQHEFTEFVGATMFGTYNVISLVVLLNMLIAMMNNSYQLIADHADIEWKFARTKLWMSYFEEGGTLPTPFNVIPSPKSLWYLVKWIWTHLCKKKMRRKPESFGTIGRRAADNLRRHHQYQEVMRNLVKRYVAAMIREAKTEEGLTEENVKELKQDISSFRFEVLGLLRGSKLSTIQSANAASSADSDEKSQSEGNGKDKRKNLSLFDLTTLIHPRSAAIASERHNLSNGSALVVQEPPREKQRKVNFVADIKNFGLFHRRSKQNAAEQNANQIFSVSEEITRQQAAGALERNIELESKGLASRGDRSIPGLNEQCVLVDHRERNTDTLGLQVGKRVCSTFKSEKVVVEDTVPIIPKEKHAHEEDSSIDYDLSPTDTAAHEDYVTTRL

H4 = assay: Luminescence Cell-Based Dose Response HTS to Identify Activators of 5'UTR Stem-Loop Driven Prion Protein mRNA Translation in H4 Neuroglioblastoma Cells. [Related pubchem assays: 1829 (Project Summary), 1814 (Primary HTS)]; type: functional; conditions: Homo sapiens
[3] = molecular target: Dual specificity tyrosine-phosphorylation-regulated kinase 1A (Rattus norvegicus, UniProt Q63470); type: biochemical, Homo sapiens
Aspartyl aminopeptidase = molecular target: T2, Aspartyl aminopeptidase (Plasmodium falciparum 3D7, UniProt Q8I2J3)
T2 sequence (Q8I2J3 whole entry): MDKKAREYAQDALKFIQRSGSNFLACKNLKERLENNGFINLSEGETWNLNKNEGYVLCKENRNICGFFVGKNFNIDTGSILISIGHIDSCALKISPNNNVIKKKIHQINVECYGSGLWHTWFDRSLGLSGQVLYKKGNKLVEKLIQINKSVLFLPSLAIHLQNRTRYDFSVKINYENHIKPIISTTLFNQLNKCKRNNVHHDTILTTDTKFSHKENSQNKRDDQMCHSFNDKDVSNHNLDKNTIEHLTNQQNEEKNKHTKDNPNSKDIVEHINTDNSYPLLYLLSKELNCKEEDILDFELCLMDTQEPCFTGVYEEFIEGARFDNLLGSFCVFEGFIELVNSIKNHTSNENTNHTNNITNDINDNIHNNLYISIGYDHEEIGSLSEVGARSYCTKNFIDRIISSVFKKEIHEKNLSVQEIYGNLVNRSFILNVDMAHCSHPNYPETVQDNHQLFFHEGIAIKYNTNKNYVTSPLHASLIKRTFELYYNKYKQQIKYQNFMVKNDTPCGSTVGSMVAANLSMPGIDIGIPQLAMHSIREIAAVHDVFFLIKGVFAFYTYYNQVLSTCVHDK

[4] = A cytotoxicity screen of small molecule inhibitors of the PhoP region in Salmonella typhi identified in the primary screen. [Related pubchem assays: 1850, 1864, 1985 ]; type: functional
[5] = ZM109 Env clade C HIV-1 fusion inhibitors, dose response, HeLa effector, CEM target cells, luciferase, cherry-pick (AID 652058); type: functional, cell-based
Estrogen receptor = molecular target: T3, Estrogen receptor (Homo sapiens, UniProt P03372);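 note: potency for inhibiting coactivator peptide recruitment to the receptor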
T3 sequence (P03372 whole entry): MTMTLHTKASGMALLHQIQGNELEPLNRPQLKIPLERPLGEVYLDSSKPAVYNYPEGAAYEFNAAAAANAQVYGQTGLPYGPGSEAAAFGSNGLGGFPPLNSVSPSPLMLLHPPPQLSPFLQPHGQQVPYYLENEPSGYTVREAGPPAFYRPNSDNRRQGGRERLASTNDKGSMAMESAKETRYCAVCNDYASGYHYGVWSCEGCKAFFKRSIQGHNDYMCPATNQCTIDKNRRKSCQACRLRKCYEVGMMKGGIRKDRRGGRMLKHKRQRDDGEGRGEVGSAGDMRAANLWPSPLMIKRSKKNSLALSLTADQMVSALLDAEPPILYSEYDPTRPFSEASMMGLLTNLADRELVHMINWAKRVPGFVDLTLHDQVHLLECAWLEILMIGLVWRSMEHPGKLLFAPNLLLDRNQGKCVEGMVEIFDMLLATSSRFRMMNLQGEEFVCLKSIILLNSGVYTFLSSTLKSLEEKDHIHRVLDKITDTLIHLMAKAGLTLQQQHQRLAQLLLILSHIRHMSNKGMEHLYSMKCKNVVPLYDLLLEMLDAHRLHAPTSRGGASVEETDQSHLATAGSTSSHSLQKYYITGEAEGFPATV

[6] = inhibitors of HIV Env-driven cell fusion, dose response, cherry-pick (AID 652057); type: functional, cell-based
[7] = inhibitors of clade B AD8 Env fusion, dose response, cell-based, cherry-pick (AID 652062); type: functional;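 note: luciferase signal from cell-cell fusion driven by HIV-1 clade B AD8 Env; potency is for inhibitors of fusion seen as a drop in luminescence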
[8] = molecular target: T4, Nucleotide-binding oligomerization domain-containing protein 1 (Homo sapiens, UniProt Q9Y239); assay: NOD1 signaling inhibitors, SAR follow-up, revised (AID 2333); type: functional
T4 sequence (Q9Y239 whole entry): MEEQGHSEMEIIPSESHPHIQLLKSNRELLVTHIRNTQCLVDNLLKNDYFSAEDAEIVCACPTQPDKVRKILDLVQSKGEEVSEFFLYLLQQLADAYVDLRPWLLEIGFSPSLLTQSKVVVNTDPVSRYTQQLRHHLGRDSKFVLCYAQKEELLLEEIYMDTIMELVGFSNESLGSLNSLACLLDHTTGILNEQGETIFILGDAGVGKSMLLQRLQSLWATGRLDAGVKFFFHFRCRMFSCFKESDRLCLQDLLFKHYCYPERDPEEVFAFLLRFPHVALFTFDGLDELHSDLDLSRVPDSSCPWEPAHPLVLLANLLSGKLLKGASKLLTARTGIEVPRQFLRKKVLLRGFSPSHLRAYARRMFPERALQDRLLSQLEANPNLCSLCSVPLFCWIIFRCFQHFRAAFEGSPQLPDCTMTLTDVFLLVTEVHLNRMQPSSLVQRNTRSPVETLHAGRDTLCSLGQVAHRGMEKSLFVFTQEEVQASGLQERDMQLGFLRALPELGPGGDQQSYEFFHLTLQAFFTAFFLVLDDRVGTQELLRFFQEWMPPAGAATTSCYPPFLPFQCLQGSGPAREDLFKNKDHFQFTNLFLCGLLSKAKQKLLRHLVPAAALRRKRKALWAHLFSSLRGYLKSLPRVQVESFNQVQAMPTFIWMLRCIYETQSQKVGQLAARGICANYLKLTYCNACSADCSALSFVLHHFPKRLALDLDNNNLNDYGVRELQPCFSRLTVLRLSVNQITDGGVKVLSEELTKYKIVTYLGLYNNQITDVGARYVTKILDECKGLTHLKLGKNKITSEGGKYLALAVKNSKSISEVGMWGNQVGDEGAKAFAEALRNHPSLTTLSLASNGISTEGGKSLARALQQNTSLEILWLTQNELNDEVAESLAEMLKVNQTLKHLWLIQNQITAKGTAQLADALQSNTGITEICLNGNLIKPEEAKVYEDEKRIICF

HEK293 [9] = assay: NOD2 signaling inhibitors in MDP-stimulated cells, cell-based, uHTS, luminescence (AID 2001); type: functional; conditions: Homo sapiens
cells [10] = type: functional, cell-based
HEK293 [11] = assay: cells; type: functional, cell-based; conditions: Homo sapiens
HEK293 [12] = assay: NOD1 signaling inhibitors, primary screen, cell-based, luminescence, uHTS (AID 1578); type: functional; conditions: Homo sapiens
cells [13] = type: functional, cell-based; remark: listed apart in the source
Tumor necrosis factor = Tumor necrosis factor (Homo sapiens, UniProt P01375); assay: TNFa-triggered NF-kB activation inhibitors, SAR follow-up, cell-based, revised (AID 2337); type: functional
[14] = molecular target: Nucleotide-binding oligomerization domain-containing protein 2 (Homo sapiens, UniProt Q9HC29); assay: NOD2 signaling inhibitors, cell-based, luminescence, uHTS, HEK293 (AID 1566); type: functional
HEK293 [15] = assay: cells; type: functional, cell-based; conditions: Homo sapiens; remark: listed apart in the source
HEK293 [16] = assay: cells; conditions: Homo sapiens
INS1 = assay: beta cell apoptosis inhibitors, cytokine rescue, dose response, luminescence, retest (AID 449756); type: functional, cell-based; conditions: Rattus norvegicus;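 note: cell death triggered by IL-1 beta plus TNF-alpha plus IFN-gamma mixture; protective hits raise ATP signal compared with cytokine alone wells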
HEK293 [17] = assay: cells; type: functional, cell-based; conditions: Homo sapiens; remark: listed apart in the source
Leucine aminopeptidase = molecular target: T5, Leucine aminopeptidase (Plasmodium falciparum 3D7, UniProt Q8IL11); assay: P. falciparum M17LAP inhibitors, primary screen, biochemical, fluorogenic H-Leu-NHMec substrate, 1536-well (AID 1619); type: functional
T5 sequence (Q8IL11 whole entry): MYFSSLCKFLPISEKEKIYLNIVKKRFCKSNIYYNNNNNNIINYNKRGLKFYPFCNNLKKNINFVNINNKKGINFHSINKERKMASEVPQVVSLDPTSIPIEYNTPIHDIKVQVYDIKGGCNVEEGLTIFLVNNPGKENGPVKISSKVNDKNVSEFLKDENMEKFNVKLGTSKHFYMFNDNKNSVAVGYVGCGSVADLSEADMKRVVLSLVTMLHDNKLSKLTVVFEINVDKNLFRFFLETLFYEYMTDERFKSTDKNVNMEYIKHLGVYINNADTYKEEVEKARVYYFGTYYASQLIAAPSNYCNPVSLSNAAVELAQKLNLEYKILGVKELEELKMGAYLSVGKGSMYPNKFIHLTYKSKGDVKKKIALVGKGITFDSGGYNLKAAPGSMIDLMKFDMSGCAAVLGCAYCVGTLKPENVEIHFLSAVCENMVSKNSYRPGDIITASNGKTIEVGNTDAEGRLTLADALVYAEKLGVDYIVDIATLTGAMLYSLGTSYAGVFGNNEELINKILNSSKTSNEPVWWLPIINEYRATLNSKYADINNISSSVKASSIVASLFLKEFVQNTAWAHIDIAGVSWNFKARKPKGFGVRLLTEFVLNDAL

[18] = molecular target: T6, Voltage-gated N-type calcium channel alpha-1B subunit/Amyloid beta A4 precursor protein-binding family A member 1 (Homo sapiens, UniProt Q00975+Q02410); assay: disruptors of Mint-PDZ/N-type channel peptide interaction – biochemical, HTRF, set 2, SAR follow-up (AID 434980); type: functional
[19] = molecular target: T6, Voltage-gated N-type calcium channel alpha-1B subunit/Amyloid beta A4 precursor protein-binding family A member 1; assay: disruptors of Mint-PDZ/N-type channel peptide interaction – biochemical, HTRF, SAR follow-up (AID 2489); type: functional

Chain of Procathepsin L (P07711 whole entry): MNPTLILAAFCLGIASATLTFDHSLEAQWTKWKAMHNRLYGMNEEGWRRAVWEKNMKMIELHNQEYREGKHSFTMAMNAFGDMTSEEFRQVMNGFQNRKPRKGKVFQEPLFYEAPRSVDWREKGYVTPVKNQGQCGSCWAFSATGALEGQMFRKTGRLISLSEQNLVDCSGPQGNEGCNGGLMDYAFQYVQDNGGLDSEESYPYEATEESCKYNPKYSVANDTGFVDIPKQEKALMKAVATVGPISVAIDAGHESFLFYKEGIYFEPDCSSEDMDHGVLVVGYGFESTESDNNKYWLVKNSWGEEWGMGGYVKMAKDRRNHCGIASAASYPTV
Chain of Tumor necrosis factor (P01375 whole entry, the tested form may be a part): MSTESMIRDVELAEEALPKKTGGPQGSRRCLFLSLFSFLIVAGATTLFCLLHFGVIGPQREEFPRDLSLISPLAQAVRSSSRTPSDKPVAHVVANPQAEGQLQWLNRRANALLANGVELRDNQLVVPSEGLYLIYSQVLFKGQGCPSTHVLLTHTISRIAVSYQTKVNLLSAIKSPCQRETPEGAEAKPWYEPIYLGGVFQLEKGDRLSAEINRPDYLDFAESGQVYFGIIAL
T6 sequence (Q00975 whole entry): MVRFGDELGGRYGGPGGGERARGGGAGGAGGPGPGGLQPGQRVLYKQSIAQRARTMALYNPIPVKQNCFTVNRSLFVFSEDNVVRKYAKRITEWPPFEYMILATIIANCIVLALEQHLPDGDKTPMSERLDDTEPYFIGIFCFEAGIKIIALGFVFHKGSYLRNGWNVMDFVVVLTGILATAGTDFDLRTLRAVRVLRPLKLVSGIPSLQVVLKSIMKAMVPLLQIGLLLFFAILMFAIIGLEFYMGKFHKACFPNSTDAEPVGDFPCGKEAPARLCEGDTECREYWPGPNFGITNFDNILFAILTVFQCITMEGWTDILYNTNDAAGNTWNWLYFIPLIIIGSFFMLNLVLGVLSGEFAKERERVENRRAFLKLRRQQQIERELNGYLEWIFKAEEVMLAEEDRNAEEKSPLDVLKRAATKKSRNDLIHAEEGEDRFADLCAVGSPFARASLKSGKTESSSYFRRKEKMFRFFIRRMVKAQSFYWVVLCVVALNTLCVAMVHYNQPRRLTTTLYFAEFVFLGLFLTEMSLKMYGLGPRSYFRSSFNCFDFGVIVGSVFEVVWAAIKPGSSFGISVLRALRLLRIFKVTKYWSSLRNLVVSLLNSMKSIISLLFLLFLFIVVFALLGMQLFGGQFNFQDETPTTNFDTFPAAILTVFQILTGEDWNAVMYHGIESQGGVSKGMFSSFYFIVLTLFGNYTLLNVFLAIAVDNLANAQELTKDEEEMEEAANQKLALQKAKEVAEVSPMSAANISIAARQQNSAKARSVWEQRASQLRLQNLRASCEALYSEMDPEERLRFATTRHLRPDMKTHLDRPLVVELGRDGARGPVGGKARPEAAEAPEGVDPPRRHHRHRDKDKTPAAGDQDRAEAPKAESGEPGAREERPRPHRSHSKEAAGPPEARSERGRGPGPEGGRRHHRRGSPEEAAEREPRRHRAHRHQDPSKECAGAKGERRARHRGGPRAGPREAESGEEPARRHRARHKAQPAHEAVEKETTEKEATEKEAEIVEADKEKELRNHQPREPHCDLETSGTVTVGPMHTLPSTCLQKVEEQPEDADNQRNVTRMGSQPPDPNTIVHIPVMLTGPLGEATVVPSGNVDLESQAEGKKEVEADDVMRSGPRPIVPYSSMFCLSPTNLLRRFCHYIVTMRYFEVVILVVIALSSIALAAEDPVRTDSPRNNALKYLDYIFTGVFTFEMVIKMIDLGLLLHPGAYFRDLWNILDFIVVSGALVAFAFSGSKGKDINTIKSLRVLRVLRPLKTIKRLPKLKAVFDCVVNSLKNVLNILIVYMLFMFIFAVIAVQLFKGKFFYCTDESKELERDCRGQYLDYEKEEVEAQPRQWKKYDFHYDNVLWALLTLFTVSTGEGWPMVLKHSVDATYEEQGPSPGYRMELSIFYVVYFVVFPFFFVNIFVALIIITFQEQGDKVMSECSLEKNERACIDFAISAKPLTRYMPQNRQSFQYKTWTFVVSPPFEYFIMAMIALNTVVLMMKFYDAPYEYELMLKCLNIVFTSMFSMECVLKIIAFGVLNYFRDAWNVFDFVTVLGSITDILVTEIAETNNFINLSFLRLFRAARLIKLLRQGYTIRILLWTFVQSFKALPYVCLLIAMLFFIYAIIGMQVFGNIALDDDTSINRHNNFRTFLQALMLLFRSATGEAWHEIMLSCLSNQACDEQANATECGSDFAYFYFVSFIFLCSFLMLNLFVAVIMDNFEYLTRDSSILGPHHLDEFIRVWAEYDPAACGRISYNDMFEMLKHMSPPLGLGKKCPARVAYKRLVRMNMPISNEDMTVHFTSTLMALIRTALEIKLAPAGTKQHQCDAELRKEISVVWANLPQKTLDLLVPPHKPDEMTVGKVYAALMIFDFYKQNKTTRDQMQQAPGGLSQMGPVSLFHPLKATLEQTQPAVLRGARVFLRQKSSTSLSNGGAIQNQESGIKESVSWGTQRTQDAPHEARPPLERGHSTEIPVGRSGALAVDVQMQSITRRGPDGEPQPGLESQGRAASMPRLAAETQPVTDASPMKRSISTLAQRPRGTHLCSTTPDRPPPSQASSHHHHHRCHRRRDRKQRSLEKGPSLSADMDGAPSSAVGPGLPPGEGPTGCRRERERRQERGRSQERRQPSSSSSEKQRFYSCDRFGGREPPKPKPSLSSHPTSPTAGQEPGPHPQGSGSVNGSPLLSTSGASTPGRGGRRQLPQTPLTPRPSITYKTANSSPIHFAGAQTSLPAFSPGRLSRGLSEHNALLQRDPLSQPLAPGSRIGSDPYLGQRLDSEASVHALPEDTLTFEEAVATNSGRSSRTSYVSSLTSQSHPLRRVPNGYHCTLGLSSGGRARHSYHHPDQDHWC
T6 sequence (Q02410 whole entry): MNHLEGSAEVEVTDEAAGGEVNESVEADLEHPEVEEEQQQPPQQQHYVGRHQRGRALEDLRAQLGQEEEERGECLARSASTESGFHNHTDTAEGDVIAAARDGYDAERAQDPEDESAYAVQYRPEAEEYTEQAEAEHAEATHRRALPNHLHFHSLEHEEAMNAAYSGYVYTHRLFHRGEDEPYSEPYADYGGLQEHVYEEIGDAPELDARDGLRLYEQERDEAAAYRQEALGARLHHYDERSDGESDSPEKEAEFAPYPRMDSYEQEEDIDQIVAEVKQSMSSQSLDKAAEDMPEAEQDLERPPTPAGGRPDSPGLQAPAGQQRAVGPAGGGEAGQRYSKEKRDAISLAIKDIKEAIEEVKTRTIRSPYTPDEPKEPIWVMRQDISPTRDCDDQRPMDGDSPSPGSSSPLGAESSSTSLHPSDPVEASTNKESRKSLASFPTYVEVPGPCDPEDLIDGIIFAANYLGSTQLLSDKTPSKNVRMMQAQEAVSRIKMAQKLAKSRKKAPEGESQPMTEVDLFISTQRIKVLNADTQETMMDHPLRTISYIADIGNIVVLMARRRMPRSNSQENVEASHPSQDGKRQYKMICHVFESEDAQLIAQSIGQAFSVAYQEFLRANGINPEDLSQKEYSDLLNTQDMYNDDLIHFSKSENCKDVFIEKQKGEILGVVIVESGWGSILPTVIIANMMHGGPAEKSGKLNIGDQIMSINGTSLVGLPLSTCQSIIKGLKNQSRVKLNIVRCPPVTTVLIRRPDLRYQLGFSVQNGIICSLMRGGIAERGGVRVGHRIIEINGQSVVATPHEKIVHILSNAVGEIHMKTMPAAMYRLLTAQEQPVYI
Chain of Nucleotide-binding oligomerization domain-containing protein 2 (Q9HC29 whole entry, the tested form may be a part): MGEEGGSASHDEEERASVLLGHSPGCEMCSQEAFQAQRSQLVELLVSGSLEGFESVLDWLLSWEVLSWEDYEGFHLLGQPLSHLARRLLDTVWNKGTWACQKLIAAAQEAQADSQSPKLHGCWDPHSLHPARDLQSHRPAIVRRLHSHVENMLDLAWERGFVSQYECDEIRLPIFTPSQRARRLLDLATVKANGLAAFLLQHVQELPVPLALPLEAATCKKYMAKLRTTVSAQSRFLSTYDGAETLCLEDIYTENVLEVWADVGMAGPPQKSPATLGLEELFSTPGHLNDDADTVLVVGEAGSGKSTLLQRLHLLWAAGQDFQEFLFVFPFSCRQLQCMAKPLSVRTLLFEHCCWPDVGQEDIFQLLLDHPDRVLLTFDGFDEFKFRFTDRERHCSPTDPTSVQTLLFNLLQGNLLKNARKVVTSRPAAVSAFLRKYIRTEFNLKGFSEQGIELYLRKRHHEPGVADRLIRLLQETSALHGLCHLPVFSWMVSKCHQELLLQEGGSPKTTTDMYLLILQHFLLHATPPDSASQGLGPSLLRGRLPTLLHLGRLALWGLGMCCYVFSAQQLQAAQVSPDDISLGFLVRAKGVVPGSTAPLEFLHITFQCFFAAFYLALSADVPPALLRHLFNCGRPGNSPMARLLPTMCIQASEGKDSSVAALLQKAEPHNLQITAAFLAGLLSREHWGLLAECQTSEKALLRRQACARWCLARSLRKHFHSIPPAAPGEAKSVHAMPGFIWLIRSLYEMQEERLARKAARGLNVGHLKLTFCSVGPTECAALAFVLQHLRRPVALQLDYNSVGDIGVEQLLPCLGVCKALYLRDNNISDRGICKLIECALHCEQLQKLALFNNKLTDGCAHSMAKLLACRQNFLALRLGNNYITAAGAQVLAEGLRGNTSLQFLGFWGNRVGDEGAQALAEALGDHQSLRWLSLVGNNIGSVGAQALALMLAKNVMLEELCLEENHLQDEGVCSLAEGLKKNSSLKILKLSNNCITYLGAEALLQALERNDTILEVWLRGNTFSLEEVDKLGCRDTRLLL

For `Oc1ccc(-c2csc(-c3ccccc3)n2)cc1O`, the EC50 [1] was > 120 µM (not active), the IC50 (Procathepsin L) was > 59.6 µM (not active) and the EC50 [2] was 4.73 µM (active). The EC50 (H4) was 6.54 µM (active), the AC50 [3] was 6.72 µM (active) and the IC50 (Aspartyl aminopeptidase) was 2.78 µM (active).
With `CCCCOc1ccc(-c2nnn(CC(=O)Nc3ncc(CC(=O)OCC)s3)n2)cc1` the EC50 [4] was > 50 µM (active).
For `O=S(=O)(NCCc1csc(-c2cccnc2)n1)c1ccc(Cl)s1`, the AC50 [5] was 7.17 µM (active), the IC50 (Estrogen receptor) was 19.2 µM (active) and the AC50 [6] was 42 µM (active). For the same compound, the AC50 [7] was 12 µM (active).
In the case of `O=C(CSc1nnc(-c2ccccc2)o1)Nn1cnnc1`, the IC50 (Procathepsin L) is reported as > 59.6 µM (not active) and the IC50 (Aspartyl aminopeptidase) is reported as 2.09 µM (active).
In the case of `O=C(NCc1cccs1)C(=O)NCC(c1ccco1)N1CCN(c2ccc(F)cc2)CC1` (centres undefined), the EC50 [4] is reported as > 50 µM (active).
In the case of `CN(Cc1cccnc1)C(=O)c1cc(COc2ccc3ncccc3c2)on1`, the IC50 [8] is reported as 2.92 µM (active), the IC50 (HEK293 [9]) is reported as 8.18 µM (active) and the EC50 (cells [10]) is reported as > 350 µM (not active). For the same compound, the IC50 (HEK293 [11]) was > 20 µM (inactive), the EC50 (HEK293 [12]) was 3.64 µM (active) and the EC50 (cells [13]) was > 350 µM (not active). The IC50 (Tumor necrosis factor) was 5.24 µM (active), the EC50 [14] was 9.78 µM (active) and the IC50 (HEK293 [15]) was 6.23 µM (active). The IC50 (HEK293 [16]) was > 20 µM (inactive), the AC50 (INS1) was 3.92 µM (active) and the IC50 (HEK293 [17]) was 17.3 µM (active).
In the case of `Cc1ccccc1Nc1nnc(SCC(=O)NC(=O)NCc2ccco2)s1`, the IC50 (Estrogen receptor) is reported as 17.3 µM (active) and the IC50 (Leucine aminopeptidase) is reported as 25.1 µM (active).
With `CC12C=CC(C)(O1)C1C(=O)N(c3ccc(F)cc3)C(=O)C12` (centres undefined) the IC50 [18] was 8.89 µM (active) and the IC50 [19] was 10.7 µM (active).
For `O=C(Nc1ccccc1Cl)Nn1cnnc1`, the IC50 (Procathepsin L) was > 59.6 µM (not active) and the IC50 (Aspartyl aminopeptidase) was 1.47 µM (active).
In the case of `Cc1oc(-c2cc(F)ccc2F)nc1CN1CCN(c2ncnc3ccccc23)CC1`, the IC50 [8] is reported as 6.29 µM (active), the IC50 (HEK293 [9]) is reported as 8.53 µM (active) and the EC50 (HEK293 [12]) is reported as 4.42 µM (active). The IC50 (Tumor necrosis factor) was 5.97 µM (active), the IC50 (HEK293 [15]) was 11.1 µM (active) and the IC50 (HEK293 [16]) was > 20 µM (inactive). For the same compound, the IC50 (HEK293 [17]) was 19.9 µM (active).
